Laboratory results from patent US8106197B2, “Aminoheteroaryl compounds as protein kinase inhibitors” (Pfizer Inc., priority 2003, dated 2012).

Experiments:
[1] = target: T1, GST fusion protein containing the Met kinase domain (Homo sapiens, UniProt P08581); test: MET transphosphorylation assay (ELISA, poly(glu-tyr) substrate); format: biochemical
T1 construct: Purified GST fusion protein containing the Met kinase domain, SUGEN, Inc
Protocol: MET Transphosphorylation Assay
This assay is used to measure phosphotyrosine levels on a poly(glutamic acid:tyrosine, 4:1) substrate as a means for identifying agonists/antagonists of met transphosphorylation of the substrate.
Purified GST fusion protein containing the Met kinase domain, SUGEN, Inc.
10% aqueous (MilliQue H2O) DMSO.
2× Kinase Dilution Buffer: for 100 mL, mix 10 mL 1M HEPES at pH 7.5 with 0.4 mL 5% BSA/PBS, 0.2 mL 0.1 M sodium orthovanadate and 1 mL 5M sodium chloride in 88.4 mL dH2O.
4× ATP Reaction Mixture: for 10 mL, mix 0.4 mL 1 M manganese chloride and 0.02 mL 0.1 M ATP in 9.56 mL dH2O.
4× Negative Controls Mixture: for 10 mL, mix 0.4 mL 1 M manganese chloride in 9.6 mL dH2O.
Antibody Dilution Buffer: for 100 mL, mix 10 mL 5% BSA/PBS, 0.5 mL 5% Carnation® Instant Milk in PBS and 0.1 mL 0.1 M sodium orthovanadate in 88.4 mL TBST.
Rabbit polyclonal antophosphotyrosine antibody, SUGEN, Inc.
Goat anti-rabbit horseradish peroxidase conjugated antibody, Biosource, Inc.
ABTS Solution: for 1 L, mix 19.21 g citric acid, 35.49 g Na2HPO4 and 500 mg ABTS with sufficient dH2O to make 1 L.
ABTS/H2O2: mix 15 mL ABST solution with 2 μL H2O2 five minutes before use.
Coat ELISA plates with 2 μg Poly(Glu-Tyr) in 100 μL PBS, hold-overnight at 4° C.
Block plate with 150 μL of 5% BSA/PBS for 60 min.
Wash plate twice with PBS then once with 50 mM Hepes buffer pH 7.4. […]

HGFR = target: T2, HGFR (Homo sapiens, UniProt P08581); test: HGFR continuous-coupled spectrophotometric assay; format: biochemical; details: for inhibition at 1 µM: Table 6, percent c-MET inhibition at 1 μM, read-out: % inhibition; for inhibition at 0.05 µM: Table 5, percent c-MET inhibition at 50 nM
T2 construct: purchased Upstate 14-526
T2 sequence (P08581 974-1390 limits assumed): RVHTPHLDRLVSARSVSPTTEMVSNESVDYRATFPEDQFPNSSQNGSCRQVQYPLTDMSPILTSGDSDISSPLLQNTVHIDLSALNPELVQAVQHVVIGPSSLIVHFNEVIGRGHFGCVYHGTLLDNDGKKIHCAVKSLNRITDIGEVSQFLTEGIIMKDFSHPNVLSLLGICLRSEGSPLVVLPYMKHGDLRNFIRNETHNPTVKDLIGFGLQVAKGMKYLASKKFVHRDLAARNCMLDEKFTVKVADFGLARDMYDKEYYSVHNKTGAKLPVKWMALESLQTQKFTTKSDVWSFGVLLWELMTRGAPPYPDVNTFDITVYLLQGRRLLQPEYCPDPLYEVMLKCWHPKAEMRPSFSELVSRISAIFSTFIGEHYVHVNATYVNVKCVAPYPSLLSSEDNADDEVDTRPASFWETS

T1 sequence (P08581 1078-1345 limits assumed): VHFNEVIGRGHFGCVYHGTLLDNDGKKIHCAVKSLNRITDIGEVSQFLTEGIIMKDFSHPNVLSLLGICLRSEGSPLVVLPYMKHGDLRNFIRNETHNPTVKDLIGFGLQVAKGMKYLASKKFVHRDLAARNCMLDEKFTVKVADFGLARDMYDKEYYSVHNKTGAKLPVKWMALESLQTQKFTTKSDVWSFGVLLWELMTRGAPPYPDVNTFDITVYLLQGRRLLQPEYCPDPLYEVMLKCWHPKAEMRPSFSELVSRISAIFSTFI

Row | inhibition at 1 µM (HGFR) [%] | % inhibition (HGFR) | Compound | further results
1 |  |  | Nc1ncc(-c2ccccc2)cc1OCc1c(Cl)cccc1Cl [Example I-9, 3-(2,6-Dichloro-benzyloxy)-5-phenyl-pyridin-2-ylamine] | IC50 [1]: 3.9 µM
2 | 42 |  | CN(C)C(=O)CN1CCN(C(=O)c2cnc(N)c(OCc3c(Cl)cccc3Cl)c2)CC1 | 
3 |  | % inhibition = 20 | Nc1ncc(-c2ccc(C(=O)N3CCC(N4CCCC4)CC3)cc2)cc1OCc1ccc(OC(F)(F)F)cc1 | 
4 |  | % inhibition = 11 | Nc1ncc(-c2ccc(C(=O)N3CCC(N4CCCC4)CC3)cc2)cc1OCc1nc(-c2ccc(C(=O)N3CCCC3)cc2)no1 | 
5 |  | % inhibition = 50 | Nc1ncc(-c2ccc(C(=O)N3CCC(N4CCCC4)CC3)cc2)cc1OCc1c(F)ccc(F)c1Cl | 
6 |  | % inhibition = 15 | Nc1ncc(-c2ccc(C(=O)N3CCC(N4CCCC4)CC3)cc2)cc1OCc1ccc(Cl)cc1 | 
7 | 31 |  | Cc1ccc(F)c(CNC(=O)c2cnc(N)c(OCc3c(Cl)cccc3Cl)c2)c1F | 
8 |  | % inhibition = 21 | Nc1ncc(-c2ccc(C(=O)N3CCC(N4CCCC4)CC3)cc2)cc1OCc1ccccc1OC(F)(F)F | 
9 | 17 |  | Cc1ccc2c(c1)C(NC(=O)c1cnc(N)c(OCc3c(Cl)cccc3Cl)c1)CCO2 (stereo not shown) | 
10 |  | % inhibition = 45 | Nc1ncc(-c2ccc(C(=O)N3CCC(N4CCCC4)CC3)cc2)cc1OCc1cc(Br)cc(Br)c1 | 
11 | 26 |  | Nc1ncc(C(=O)NCc2noc(C(=O)N3CCC(CO)CC3)n2)cc1OCc1c(Cl)cccc1Cl | 
12 |  | % inhibition = 12 | CC(C)Cc1noc(COc2cc(-c3ccc(C(=O)N4CCC(N5CCCC5)CC4)cc3)cnc2N)n1 | 
13 | 21 |  | Nc1ncc(C(=O)NC2COC3(CCN(c4ncccn4)CC3)C2)cc1OCc1c(Cl)cccc1Cl (stereo not shown) | 
14 |  | % inhibition = 19 | Nc1ncc(-c2ccc(C(=O)N3CCC(N4CCCC4)CC3)cc2)cc1OCc1ccc(Cl)s1 | 
15 | 26 |  | Nc1ncc(C(=O)NCc2ccc(OC(F)F)cc2)cc1OCc1c(Cl)cccc1Cl | 
16 |  | % inhibition = 10 | Nc1ncc(-c2ccc(C(=O)N3CCC(N4CCCC4)CC3)cc2)cc1OCc1ccc(C(F)(F)F)cc1 | 
17 | 30 |  | Nc1ncc(C(=O)NCCc2ccncc2)cc1OCc1c(Cl)cccc1Cl | 
18 |  | % inhibition = 18 | Cc1cc(=O)n2nc(COc3cc(-c4ccc(C(=O)N5CCC(N6CCCC6)CC5)cc4)cnc3N)nc2[nH]1 | 
19 | 99 |  | Nc1ncc(C(=O)NCC2=CSC3=NCCN23)cc1OCc1c(Cl)cccc1Cl | 
20 | 26 |  | CN(CCS(C)(=O)=O)C(=O)c1cnc(N)c(OCc2c(Cl)cccc2Cl)c1 | 

Row | inhibition at 1 µM (HGFR) [%] | % inhibition (HGFR) | Compound | further results
21 |  |  | CC(Oc1cc(-c2ccc(C(=O)NCC(c3ccc[nH]3)C(F)(F)F)cc2)cnc1N)c1c(Cl)ccc(F)c1Cl (stereo not shown) | inhibition at 0.05 µM (HGFR): 70%
22 |  |  | CC(Cc1ccc(Cl)cc1)NC(=O)c1ccc(-c2cnc(N)c(OC(C)c3c(Cl)ccc(F)c3Cl)c2)cc1 (stereo not shown) | inhibition at 0.05 µM (HGFR): 58%
23 |  | % inhibition = 11 | Cc1noc(COc2cc(-c3ccc(C(=O)N4CCC(N5CCCC5)CC4)cc3)cnc2N)n1 | 
24 |  | % inhibition = 9 | CN(C)CCNC(=O)c1ccc(COc2cc(-c3ccc(C(=O)N4CCC(N5CCCC5)CC4)cc3)cnc2N)cc1 | 
25 |  |  | Cc1noc([C@H]2CC[C@H](CNC(=O)c3ccc(-c4cnc(N)c(OC(C)c5c(Cl)ccc(F)c5Cl)c4)cc3)CC2)n1 (stereo partly shown) | inhibition at 0.05 µM (HGFR): 51%
26 | 22 |  | COc1ccc(C(CCO)NC(=O)c2cnc(N)c(OCc3c(Cl)cccc3Cl)c2)cc1 (stereo not shown) | 
27 |  |  | CC(Oc1cc(-c2ccccc2F)cnc1N)c1c(Cl)ccc(F)c1Cl (stereo not shown) [Example I-563, 3-[1-(2,6-Dichloro-3-fluoro-phenyl)-ethoxy]-5-(2-fluoro-phenyl)-pyridin-2-ylamine] | Ki (HGFR; Table 3, Ki(μM) or I(%)): 0.433 µM
28 |  | % inhibition = 15 | CCOC(=O)CCNS(=O)(=O)c1ccc(COc2cc(-c3ccc(C(=O)N4CCC(N5CCCC5)CC4)cc3)cnc2N)cc1 | 
29 |  | % inhibition = 27 | Nc1ncc(-c2ccc(C(=O)N3CCC(N4CCCC4)CC3)cc2)cc1OCc1noc(-c2cccc(C(F)(F)F)c2)n1 | 
30 | 32 |  | COc1cc(CCNC(=O)c2cnc(N)c(OCc3c(Cl)cccc3Cl)c2)ccc1O | 
31 | 46 |  | CC(C)OCCNC(=O)c1cnc(N)c(OCc2c(Cl)cccc2Cl)c1 | 
32 |  | % inhibition = 24 | Nc1ncc(-c2ccc(C(=O)N3CCC(N4CCCC4)CC3)cc2)cc1OCc1ccc2ccc(Cl)cc2n1 | 
33 | 35 |  | Cn1ccnc1SCC1(O)CCCN(C(=O)c2cnc(N)c(CCc3c(Cl)cccc3Cl)c2)CC1 (stereo not shown) | 
34 | 29 |  | NC(=O)C1CCN(C(=O)c2cnc(N)c(OCc3c(Cl)cccc3Cl)c2)CC1 | 
35 |  | % inhibition = 11 | Nc1ncc(-c2ccc(C(=O)N3CCC(N4CCCC4)CC3)cc2)cc1OCc1ccc(C(=O)NCCCN2CCCC2=O)cc1 | 
36 | 45 |  | Nc1ncc(C(=O)N2CCC(CCO)CC2)cc1OCc1c(Cl)cccc1Cl | 
37 |  |  | CC1CCCN(C(=O)c2ccc(-c3cnc(N)c(OC(C)c4c(Cl)ccc(F)c4Cl)c3)cc2)C1 (stereo not shown) | inhibition at 0.05 µM (HGFR): 65%
38 | 39 |  | NC(=O)C1CCCN(C(=O)c2cnc(N)c(OCc3c(Cl)cccc3Cl)c2)C1 (stereo not shown) | 
39 |  | % inhibition = 12 | Nc1ncc(-c2ccc(C(=O)N3CCC(N4CCCC4)CC3)cc2)cc1OCc1cccc(C(=O)NCCc2ccccn2)c1 | 
40 |  | % inhibition = 13 | Nc1ncc(-c2ccc(C(=O)N3CCC(N4CCCC4)CC3)cc2)cc1OCc1cccc(C(=O)NC2CCN(Cc3ccccc3)CC2)c1 | 
